Source: ChEMBL document CHEMBL5726611, “Factor XIA inhibitors” (2019)

What follows are compounds tested against Coagulation factor XI (Homo sapiens, UniProt P03951) (assay: Factor XIa Assay: The effectiveness of a compound of the present invention as an inhibitor of Coagulation Factor XIa can be determined using a relevant purified serine protease, and an appropriate synthetic substrate. The rate of hydrolysis of the chromogenic or fluorogenic substrate by the relevant serine protease was measured both in the absence and presence of compounds of the present invention. Assays were conducted at rt or at 37° C. […] A decrease in the rate of fluorescence change in the presence of inhibitor is indicative of enzyme inhibition. Such methods are known to one skilled in the art. […] Times required to achieve equilibration between enzyme and inhibitor were determined in control experiments. Initial velocities of product formation in the absence (Vo) or presence of inhibitor (Vi) were measured. Assuming competitive inhibition, and that unity is negligible compared Km/[S], [I]/e, and [I]/e (where [S], [I], and e respectively represent the total concentrations, of substrate, inhibitor and enzyme), the equilibrium constant (Ki) for dissociation of the inhibitor from the enzyme can be obtained from the dependence of Vo/Vi on [I] shown in the following equation.).
Coagulation factor XI, sequence (P03951 19-387 limits assumed): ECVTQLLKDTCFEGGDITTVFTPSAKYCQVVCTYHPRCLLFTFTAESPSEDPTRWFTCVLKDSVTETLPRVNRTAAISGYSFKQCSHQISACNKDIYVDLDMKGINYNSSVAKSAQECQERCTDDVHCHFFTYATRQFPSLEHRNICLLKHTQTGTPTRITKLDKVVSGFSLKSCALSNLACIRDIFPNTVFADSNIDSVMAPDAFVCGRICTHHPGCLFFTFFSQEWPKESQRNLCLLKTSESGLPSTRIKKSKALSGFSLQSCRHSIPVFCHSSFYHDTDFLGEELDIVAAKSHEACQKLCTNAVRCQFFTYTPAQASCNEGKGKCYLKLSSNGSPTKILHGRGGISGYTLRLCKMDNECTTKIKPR
Coagulation factor XI, sequence (P03951 388-625 limits assumed): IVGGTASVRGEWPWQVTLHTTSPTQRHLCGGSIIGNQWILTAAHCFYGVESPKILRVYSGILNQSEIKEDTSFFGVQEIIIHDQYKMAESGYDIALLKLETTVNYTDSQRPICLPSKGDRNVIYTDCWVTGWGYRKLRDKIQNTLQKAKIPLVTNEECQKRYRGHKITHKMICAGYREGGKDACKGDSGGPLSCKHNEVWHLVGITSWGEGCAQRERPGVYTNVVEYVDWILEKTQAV

Question: With `COC(=O)Nc1ccc2c(c1)NC(=O)CCCCC(c1ccc(-c3c(F)cccc3OC(F)F)cn1)c1cccc-2c1` (stereo unspecified) as the compound, how does the Ki read?
Answer: > 0.875 µM

Question: With `COC(=O)Nc1ccc2c(c1)NC(=O)CCCCC(c1ccc(-c3cc(Cl)ccc3-n3cc(C(F)F)nn3)cn1)c1cccc-2c1` (stereo unspecified) as the compound, how does the Ki read?
Answer: 0.0092 µM

Question: Which Ki does the source give for `COC(=O)Nc1ccc2c(c1)NC(=O)CCCCC(c1ccc(-c3cc(Cl)ccc3-n3cc(C#N)cn3)cn1)c1cccc-2c1` (stereo unspecified) here?
Answer: 0.211 µM

Question: With `COC(=O)Nc1ccc2c(c1)NC(=O)CCCCC(c1ccc(-c3cc(Cl)ccc3C(F)(F)F)cn1)c1cccc-2c1` (stereo unspecified) as the compound, how does the Ki read?
Answer: > 0.875 µM

Question: With `COC(=O)Nc1ccc2c(c1)NC(=O)CCCCC(c1ccc(-c3cc(Cl)ccc3OC(F)F)cn1)c1cccc-2c1` (stereo unspecified) as the compound, how does the Ki read?
Answer: 0.181 µM

Question: Which Ki does the source give for `COC(=O)Nc1ccc2c(c1)NC(=O)CCCCC(c1ccc(-c3cc(Cl)ccc3OC(F)(F)F)cn1)c1cccc-2c1` (stereo unspecified) here?
Answer: 0.399 µM

Question: Which Ki does the source give for `COC(=O)Nc1ccc2c(c1)NC(=O)CCCCC(c1ccc(-c3cc(Cl)ccc3-n3cc(C4CC4)nn3)cn1)c1cccc-2c1` (stereo unspecified) here?
Answer: 0.137 µM

Question: With `COC(=O)Nc1ccc2c(c1)NC(=O)CCCCC(c1ccc(-c3c(-n4cc(C(F)(F)F)nn4)ccc(Cl)c3F)cn1)c1cccc-2c1` (stereo unspecified) as the compound, how does the Ki read?
Answer: 0.00202 µM

Question: With `COC(=O)Nc1ccc2c(c1)NC(=O)CCCCC(c1ccc(-c3cc(Cl)ccc3-n3cc(C(F)(F)F)nn3)cn1)c1cccc-2c1` (stereo unspecified) as the compound, how does the Ki read?
Answer: 0.0183 µM

Question: Which Ki does the source give for `COC(=O)Nc1ccc2c(c1)NC(=O)CCCCC(c1ccc(-c3cc(Cl)ccc3-c3cnco3)cn1)c1cccc-2c1` (stereo unspecified) here?
Answer: 0.259 µM

Question: Which Ki does the source give for `COC(=O)Nc1ccc2c(c1)NC(=O)CCCCC(c1ccc(-c3cc(Cl)ccc3-n3cc(Cl)nn3)cn1)c1cccc-2c1` (stereo unspecified) here?
Answer: 0.012 µM

Question: Which Ki does the source give for `COC(=O)Nc1ccc2c(c1)NC(=O)CCCCC(c1ccc(-c3cc(Cl)ccc3-n3cc(C(F)(F)F)cn3)cn1)c1cccc-2c1` (stereo unspecified) here?
Answer: 0.708 µM

Question: With `COC(=O)Nc1ccc2c(c1)NC(=O)CCCCC(c1ccc(-c3cc(Cl)ccc3C#N)cn1)c1cccc-2c1` (stereo unspecified) as the compound, how does the Ki read?
Answer: 0.041 µM

Question: Which Ki does the source give for `COC(=O)Nc1ccc2c(c1)NC(=O)CCCCC(c1ccc(-c3cc(Cl)ccc3-c3cnn(C(F)F)c3)cn1)c1cccc-2c1` (stereo unspecified) here?
Answer: 0.64 µM

Question: Which Ki does the source give for `COC(=O)Nc1ccc2c(c1)NC(=O)CCCCC(c1ccc(-c3c(-n4cnnn4)ccc(Cl)c3F)cn1)c1cccc-2c1` (stereo unspecified) here?
Answer: 0.00024 µM

Question: With `COC(=O)Nc1ccc2c(c1)NC(=O)CCCCC(c1ccc(-c3cc(F)ccc3-n3cnnn3)cn1)c1cccc-2c1` (stereo unspecified) as the compound, how does the Ki read?
Answer: 0.007 µM
